{"source": "paper PMC3573960", "about": "(Molecular Neurodegeneration, 2012)", "key": {"COX-1": {"biological_target": "T1, COX-1 (Homo sapiens, UniProt P23219)", "T1 construct": "purchased Cerep (Redmond, WA) 0726; host or cells: Sf9", "T1 sequence (P23219 24-599)": "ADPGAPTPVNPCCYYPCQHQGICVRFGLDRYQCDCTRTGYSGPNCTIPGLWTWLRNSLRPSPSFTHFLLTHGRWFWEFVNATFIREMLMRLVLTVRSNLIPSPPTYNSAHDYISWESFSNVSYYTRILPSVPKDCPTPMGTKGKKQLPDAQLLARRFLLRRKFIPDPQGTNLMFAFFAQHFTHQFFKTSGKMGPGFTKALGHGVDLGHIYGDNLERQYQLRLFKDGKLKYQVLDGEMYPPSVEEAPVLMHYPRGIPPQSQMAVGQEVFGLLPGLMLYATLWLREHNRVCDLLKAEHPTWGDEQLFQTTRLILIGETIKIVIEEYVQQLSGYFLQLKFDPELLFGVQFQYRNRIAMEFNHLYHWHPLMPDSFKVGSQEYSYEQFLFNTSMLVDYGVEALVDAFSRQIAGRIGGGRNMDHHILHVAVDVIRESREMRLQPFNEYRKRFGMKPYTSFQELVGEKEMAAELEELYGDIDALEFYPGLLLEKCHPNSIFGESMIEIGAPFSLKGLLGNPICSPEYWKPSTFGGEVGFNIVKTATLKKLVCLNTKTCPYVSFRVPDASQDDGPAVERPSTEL", "assay": "COX-1 enzyme assay (Cerep)", "format": "biochemical", "conditions": "human recombinant, arachidonic acid 4 μM", "procedure": "COX-1 and COX-2 enzyme assays were performed by Cerep (Redmond, WA, Catalog # 0726 and 0727). Briefly, the assays used human recombinant Sf9 cells and arachidonic acid (4 μM for COX-1 and 2 μM for COX-2) as the substrate. Production of PGE2 was detected by enzyme immunoassay."}, "γ-secretase [1]": {"tested_on": "γ-secretase", "assay": "H4-APP751 cell-based assay for secreted Aβ peptides (sandwich ELISA)", "design": "species or system human", "conditions": "H4-APP751 cells, up to 3 μM", "protocol": "Human neuroglioma H4 cells (ATCC, Manassas, VA) were transfected with a pcDNA3.1 (Invitrogen, Carlsbad, CA) plasmid expressing human wild type APP751 cDNA; and a stable cell line was generated using G418 (Invitrogen) selection [55]. Prior to experimentation, H4-APP751 cells were maintained in Dulbecco’s modified Eagle’s high glucose medium with 10% fetal bovine serum, 1% penicillin-streptomycin, 2 mM L-glutamine, and 0.4 mg/mL G418. All culture reagents were from Invitrogen.\nPlates were incubated overnight (16–18 h) and supernatant was removed for quantification of Aβ peptides by sandwich ELISA. Cytotoxicity was evaluated using CellTiter 96® AQueous One Solution Cell Proliferation Assay (MTS Assay, Promega, Madison, WI) according to the manufacturer’s protocol.\nAβ peptide levels were quantified by sandwich ELISA. […]\nFreshly collected samples of cultured cell supernatant or synthetic peptides (American Peptide Co., Sunnyvale, CA or California Peptide Research, Inc., Napa, CA) for standard curves were diluted with media, and loaded into anti-Aβ antibody-coated plates and incubated at 4°C for about 24 h. Aβ peptides were detected with the 4G8 antibody (Aβ, aa 17–24) conjugated to horseradish peroxidase (Covance, Inc., Princeton, NJ), and SureBlue 3,3’,5,5’-tetramethylbenzidine (TMB) peroxidase substrate (KPL, Inc., Gaithersburg, MA). […]"}, "Tg2576 mice [2]": {"tested_on": "Tg2576 mice", "conditions": "mean (sem)", "from_the_text": "(§1) Male Tg2576 and WT mice were both derived from crosses of male Tg2576 mice and female B6SJLF1 mice (Taconic) and were singly housed upon arrival. […] Some animals were euthanized as described above. For histological studies, a subset of mice were euthanized by CO2 asphyxiation and transcardially perfused with cold 0.9% NaCl. […] The left cerebral hemisphere was cut into 2 pieces, weighed, and frozen.\nThe right hemispheres were sectioned at 20 μm in the sagittal plane. From 12 levels, 7 sections were retained and processed. Aβ plaque load was quantified in sections doubly stained by immunohistochemistry with 6E10 antibody (N-terminal human Aβ, aa 1–16) and by ThioflavinS. Astrocytes were immunostained using a primary rabbit polyclonal antibody against GFAP (Dako, Glostrup, Denmark) and a fluorescently labelled secondary Cy2 antibody (Jackson ImmunoResearch Laboratories, West Grove, PA). Activated microglia were immunostained using a rat anti-murine CD11b primary antibody (AbD Serotec, Kidlington, UK) and a fluorescently labelled secondary Cy3 antibody (Jackson ImmunoResearch Laboratories). Astrocytes and microglia were labelled in a double incubation and sections were counterstained with DAPI to visualize cell nuclei.\nHippocampus and neocortex were measured separately, and the percent area of immunoreactivity or ThioflavinS staining per brain region was evaluated using automated image analysis software (Image Pro Plus, v. 6.2, Media Cybernetics, Bethesda, MD). Numbers and sizes of Aβ deposits were also counted automatically. Measurements from 5 sections per mouse were averaged and the individual mouse average was used to calculate the group means."}, "HEK293 cells": {"tested_on": "HEK293 cells", "assay": "CellTiter-Blue cell viability in HEK293 cells expressing NotchΔE", "format": "cell-based, human", "conditions": "up to 30 μM"}, "γ-secretase (EphA4)": {"tested_on": "γ-secretase (EphA4)", "assay": "EphA4 CTF accumulation in rat primary neocortical cultures (Western blot)", "conditions": "24 h, up to 10 μM", "protocol": "Protein concentration of the lysate was determined by the BCA method, and 30 μg of total protein were loaded on a 10% Bis-Tris gel (Invitrogen). EphA4 CTF was visualized using an anti-EphA4-CTF antibody (Abnova, Walnut, CA) and an IRDye800CW® secondary antibody (Rockland Immunochemicals, Inc., Gilbertsville, PA). Detection was performed using an Odyssey scanner (LiCor Biosciences) and blots quantified using ImageJ software (available at http://rsbweb.nih.gov/ij)."}, "γ-secretase [3]": {"tested_on": "γ-secretase", "assay": "APP CTF accumulation in H4-APP751 cell lysates (Western blot)", "format": "cell-based, human", "conditions": "H4-APP751 cells, 16 h", "from_the_text": "Cells were lysed in situ and the resulting lysate cleared of nuclei by centrifugation, as described elsewhere. Samples were fractionated by SDS-PAGE on a 12% NuPage gel (Invitrogen), transferred to a nitrocellulose membrane, and immunoblotted with an anti-APP-CTF antibody (Sigma-Aldrich)."}, "Tg2576 mice [4]": {"tested_on": "Tg2576 mice", "assay": "Acute treatment study in Tg2576 mice, brain Aβ by ELISA after TBS extraction", "conditions": "4 h", "protocol": "Aβ peptide levels were quantified by sandwich ELISA. Plates were coated overnight at 4°C with either human anti-AβTotal (amino acids [aa] 27–37) or rodent anti-Aβ1-x (aa 1–8) rabbit polyclonal antibodies. For detection of Aβ38 and Aβ42, plates were coated with antibodies specific for the carboxyl-terminal neoepitope of each peptide. Antibodies were from Dr. Pankaj Mehta (Institute for Basic Research in Developmental Disabilities, Staten Island, NY) [58].\nThe 10 and 30 mg/kg doses were a solution and a suspension, respectively. […] After extraction of the brain, olfactory bulbs and hindbrain were removed and the cerebral hemispheres were cut into 4 pieces. […] All tissue samples were weighed, frozen in liquid nitrogen, and stored at −80°C until analysis.\nIn order to examine both soluble and insoluble pools of Aβ, sequential extraction of Tg2576 mouse brain samples was performed to produce 4 pools of Aβ, essentially as described elsewhere [37]. Briefly, brains were homogenized in 25 mM TBS, pH 7.4 with protease inhibitors (Mini Complete™) to release the soluble Aβ into the resulting supernatants after high speed ultracentrifugation. […] The extracted Aβ from each step was subjected to ELISA for human Aβ42, Aβ38, and AβTotal, as described above."}, "[5]": {"tested_on": "Aph1AL containing γ-secretase complexes", "assay": "Cell-free AICD production from APP β-CTF (Western blot)", "format": "biochemical, murine", "conditions": "up to 100 μM", "procedure": "DAPT was used as a reference positive control for the assay. For each assay condition, a 5-μL microsomal fraction, containing 1% CHAPSO (3-[(3-cholamidopropyl)dimethylammonio]-2-hydroxy-1-propanesulfonate) from murine embryonic fibroblasts (MEF) lacking the Aph-1A, Aph-1B, and Aph-1C genes (triple knock out) and rescued with Aph-1AL, was prepared in a reaction mixture of 5 μL substrate (recombinant APP β-CTF 3-Flag-tagged) at 0.8 μM, 0.0125% phosphatidylethanolamine, 0.1%, phosphatidylcholine, 0.05% sphingomyelin, and 8.9 μL PIPES (piperazine-N,N′-bis[−ethanesulfonic acid]) buffer. […] For detection of AICD, one-half of the reaction mixture was purified by a methanol-chloroform extraction in order to remove lipids and hydrophobic proteins (e.g., APP β-CTF). This purified fraction was further analyzed by SDS-PAGE and Western blotting. AICD was detected with an ANTI-FLAG® antibody (Sigma-Aldrich). The other half of the reaction mixture was used to analyze the levels of Aβ1-40 and Aβ1-42 by AlphaLisa (Perkin Elmer, Waltham, MA)."}, "Tg2576 mice [6]": {"tested_on": "Tg2576 mice", "assay": "Contextual fear conditioning assay", "protocol": "Animals in the food formulation groups were maintained on the compound formulated diets. The training session on day 1 consisted of the following sequence: 3 min acclimation to the test chamber (Kinder Scientific, Poway, CA), 2 s 1.5 mA foot shock, 2 min wait period, another 2 s 1.5 mA foot shock, followed by a final 1 min wait period. On day 2, testing consisted of returning the animals to the chamber for 5 min and the total time spent freezing was measured by an automated software system (Kinder Scientific). […] Percentage of time spent freezing for each mouse was calculated using the formula: (number of seconds with zero beam breaks/300) X 100."}, "[7]": {"assay": "Measurement of EVP-0015962 in brain (LC-MS/MS)", "format": "in vivo, mouse", "conditions": "for range of brain concentrations: C57BL/6 mice, 3 or 7 days; for concentration at 50 weeks: male, mouse, brain (cerebellum), oral", "procedure": "Mice were placed on the food formulations for 3 or 7 days and were euthanized, as described above, approximately 1 h after the onset of the light cycle.\nas §1\nCerebellums were homogenized in a Mini-BeadBeater (Biospec Products, Inc., Bartlesville, OK)."}}, "note": "Like-named read-outs stand apart in the source and are kept apart here. Marks after values point to notes of the source that are not given here."}
{"smiles": "O=C(O)[C@H](CC1CCC1)c1cc(Cl)c(OCC(F)(F)F)c(-c2ccc(C(F)(F)F)cc2)c1", "note": "[EVP-0015962, (R)-2-(5-chloro-6-(2,2,2-trifluoroethoxy)-4’-(trifluoromethyl)biphenyl-3-yl)-3-cyclobutylpropanoic acid]", "values": [{"measurement": "IC50", "setting": "COX-1", "value": "> 10", "unit": "µM"}, {"measurement": "levels of AβTotal", "setting": "γ-secretase [1]", "value": "remained unchanged"}, {"measurement": "6E10 Aβ plaque Number/mm^2", "setting": "Tg2576 mice [2]; hippocampus, 20 mg/kg/day", "value": "61.0 (12.2)* percent of control"}, {"measurement": "6E10 Aβ plaque Size (μm^2)", "setting": "Tg2576 mice [2]; hippocampus, 20 mg/kg/day", "value": "99.4 (15.7) percent of control"}, {"measurement": "6E10 Aβ plaque percent area", "setting": "Tg2576 mice [2]; hippocampus, 20 mg/kg/day", "value": "62.1 (13.2)* percent of control"}, {"measurement": "ThioflavinS Aβ plaque Number/mm^2", "setting": "Tg2576 mice [2]; hippocampus, 20 mg/kg/day", "value": "55.2 (15.6)* percent of control"}, {"measurement": "ThioflavinS Aβ plaque Size (μm^2)", "setting": "Tg2576 mice [2]; hippocampus, 20 mg/kg/day", "value": "56.5 (16.3) percent of control"}, {"measurement": "ThioflavinS Aβ plaque percent area", "setting": "Tg2576 mice [2]; hippocampus, 20 mg/kg/day", "value": "40.7 (16.9)** percent of control"}, {"measurement": "6E10 Aβ plaque Number/mm^2", "setting": "Tg2576 mice [2]; hippocampus, 60 mg/kg/day", "value": "53.9 (16.8)* percent of control"}, {"measurement": "6E10 Aβ plaque Size (μm^2)", "setting": "Tg2576 mice [2]; hippocampus, 60 mg/kg/day", "value": "104.1 (11.6) percent of control"}, {"measurement": "6E10 Aβ plaque percent area", "setting": "Tg2576 mice [2]; hippocampus, 60 mg/kg/day", "value": "53.1 (15.2)* percent of control"}, {"measurement": "ThioflavinS Aβ plaque Number/mm^2", "setting": "Tg2576 mice [2]; hippocampus, 60 mg/kg/day", "value": "50.7 (12.8)* percent of control"}, {"measurement": "ThioflavinS Aβ plaque Size (μm^2)", "setting": "Tg2576 mice [2]; hippocampus, 60 mg/kg/day", "value": "58.9 (27.0) percent of control"}, {"measurement": "ThioflavinS Aβ plaque percent area", "setting": "Tg2576 mice [2]; hippocampus, 60 mg/kg/day", "value": "27.3 (6.5)** percent of control"}, {"measurement": "6E10 Aβ plaque Number/mm^2", "setting": "Tg2576 mice [2]; neocortex, 20 mg/kg/day", "value": "65.2 (8.8) percent of control"}, {"measurement": "6E10 Aβ plaque Size (μm^2)", "setting": "Tg2576 mice [2]; neocortex, 20 mg/kg/day", "value": "105.5 (8.8) percent of control"}, {"measurement": "6E10 Aβ plaque percent area", "setting": "Tg2576 mice [2]; neocortex, 20 mg/kg/day", "value": "69.2 (9.7) percent of control"}, {"measurement": "ThioflavinS Aβ plaque Number/mm^2", "setting": "Tg2576 mice [2]; neocortex, 20 mg/kg/day", "value": "64.3 (8.0) percent of control"}, {"measurement": "ThioflavinS Aβ plaque Size (μm^2)", "setting": "Tg2576 mice [2]; neocortex, 20 mg/kg/day", "value": "87.8 (12.2) percent of control"}, {"measurement": "ThioflavinS Aβ plaque percent area", "setting": "Tg2576 mice [2]; neocortex, 20 mg/kg/day", "value": "64.3 (14.3) percent of control"}, {"measurement": "6E10 Aβ plaque Number/mm^2", "setting": "Tg2576 mice [2]; neocortex, 60 mg/kg/day", "value": "71.3 (15.0) percent of control"}, {"measurement": "6E10 Aβ plaque Size (μm^2)", "setting": "Tg2576 mice [2]; neocortex, 60 mg/kg/day", "value": "88.5 (5.4) percent of control"}, {"measurement": "6E10 Aβ plaque percent area", "setting": "Tg2576 mice [2]; neocortex, 60 mg/kg/day", "value": "65.3 (16.3) percent of control"}, {"measurement": "ThioflavinS Aβ plaque Number/mm^2", "setting": "Tg2576 mice [2]; neocortex, 60 mg/kg/day", "value": "59.6 (14.1) percent of control"}, {"measurement": "ThioflavinS Aβ plaque Size (μm^2)", "setting": "Tg2576 mice [2]; neocortex, 60 mg/kg/day", "value": "58.1 (10.6)* percent of control"}, {"measurement": "ThioflavinS Aβ plaque percent area", "setting": "Tg2576 mice [2]; neocortex, 60 mg/kg/day", "value": "29.9 (7.3)* percent of control"}, {"measurement": "cell viability", "setting": "HEK293 cells", "value": "did not affect"}, {"measurement": "EphA4 CTF accumulation", "setting": "γ-secretase (EphA4)", "value": "did not result in EphA4 CTF accumulation"}, {"measurement": "Full length APP", "setting": "γ-secretase [3]; 1 nM to 10 μM", "value": "not altered"}, {"measurement": "accumulation of APP α- or β-CTFs", "setting": "γ-secretase [3]; concentrations up to 10 μM", "value": "did not cause the accumulation"}, {"measurement": "decrease in brain Aβ42 compared to vehicle-treated mice", "setting": "Tg2576 mice [4]; 10 mg/kg p.o., TBS extraction (NS)", "value": 22, "unit": "%"}, {"measurement": "decrease in brain Aβ42 compared to vehicle-treated mice", "setting": "Tg2576 mice [4]; 30 mg/kg p.o., TBS extraction (p < 0.05)", "value": 39, "unit": "%"}, {"measurement": "brain AβTotal", "setting": "Tg2576 mice [4]; 10 or 30 mg/kg p.o.", "value": "remained unchanged"}, {"measurement": "production of AICD from APP β-CTF", "setting": "[5]", "value": "did not prevent"}, {"measurement": "genotype-associated deficit in percent freezing (CFC)", "setting": "Tg2576 mice [6]; 20 or 60 mg/kg/day in food, 11 weeks (p < 0.01)", "value": "reversed"}, {"measurement": "genotype-associated deficit in percent freezing (CFC)", "setting": "Tg2576 mice [6]; single dose 30 mg/kg p.o., 3 h prior to training", "value": "did not reverse this deficit"}, {"measurement": "range of brain concentrations", "setting": "[7]; food formulation 20 mg/kg/day", "value": "1.5 to 3.1", "unit": "µM"}, {"measurement": "range of brain concentrations", "setting": "[7]; food formulation 60 mg/kg/day", "value": "4.9 to 9.7", "unit": "µM"}, {"measurement": "accumulation or cytochrome P450 enzyme induction (from brain concentrations)", "setting": "[7]; Tg2576 mice, 50 weeks vs short-term treatments", "value": "did not demonstrate accumulation or cytochrome P450 enzyme induction"}, {"measurement": "concentration at 50 weeks", "setting": "[7]; Tg2576 mice, 20 mg/kg/day in food", "value": "2.5 ± 0.2", "unit": "µM"}, {"measurement": "concentration at 50 weeks", "setting": "[7]; Tg2576 mice, 60 mg/kg/day in food", "value": "8.3 ± 0.6", "unit": "µM"}, {"measurement": "oral bioavailability", "setting": "[7]; mice", "value": "orally bioavailable"}]}
